System: HaCaTa cells

Compound	protection from drug-induced toxicity (Absorbance units) (0.625 mM NAC plus cooling at 22° C., extremely high doses of 4-OH-CP (FIG. 5))	cytoprotection from combinatorial drug treatment (AC), versus cooling alone (0.625 mM NAC plus cooling at 26° C. or 22° C., sequential doxorubicin 3 μg/ml (1 h) and 4-OH-CP 5 μg/ml (1 h) (FIG. 7))	cytoprotection of cooling at 26° C. with inhibition of ROS, compared with 22° C. at same CP concentration (0.625 mM NAC plus cooling at 26° C., 4-OH-CP (FIG. 4 vs FIG. 3))	protection from drug-induced toxicity (% relative to control) (0.625 mM NAC plus cooling at 26° C., extremely high doses of doxorubicin (FIG. 6))	cytotoxicity of the drug in keratinocytes
CC(=O)N[C@@H](CS)C(=O)O [NAC, N-acetyl-cysteine]	strikingly high levels of protection	better cytoprotection	highly cytoprotective	strikingly high levels of protection	
COc1cccc2c1C(=O)c1c(O)c3c(c(O)c1C2=O)C[C@@](O)(C(=O)CO)C[C@@H]3O[C@H]1C[C@H](N)[C@H](O)[C@H](C)O1 [doxorubicin]					nearly total cytotoxicity (death)
